Reference: patent US20220204491A1, “FXR (NR1H4) MODULATING COMPOUNDS” (Gilead Sciences, Inc., priority 2019, published 2022)

What follows are molecules tested against T1, FXR ligand binding domain (Homo sapiens, UniProt Q96RI1) (assay: Mammalian one hybrid (M1H) Gal4 reporter assay in HEK293 cells). Settings: Gal4-FXR-LBD luciferase reporter, 16 hours.
T1 construct: expressed in transfected cells; host or cells: HEK293 (DSMZ), transient transfection of pCMV-BD-FXR-LBD, pFR-Luc and pRL-CMV
T1 sequence (Q96RI1 187-472 isoform Q96RI1-2): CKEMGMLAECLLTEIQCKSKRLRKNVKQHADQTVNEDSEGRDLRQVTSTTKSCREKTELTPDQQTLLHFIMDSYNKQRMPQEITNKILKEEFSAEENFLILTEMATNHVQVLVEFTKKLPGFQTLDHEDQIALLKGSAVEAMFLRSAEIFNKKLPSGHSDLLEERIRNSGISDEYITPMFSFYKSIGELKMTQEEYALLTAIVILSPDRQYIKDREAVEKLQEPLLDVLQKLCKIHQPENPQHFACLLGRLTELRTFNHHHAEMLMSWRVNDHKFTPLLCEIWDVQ
Assay type: cell-based
Description: Determination of a ligand mediated Gal4 promoter driven transactivation to quantify ligand binding mediated activation of FXR was performed as follows.
The cDNA part encoding the FXR ligand binding domain was cloned into vector pCMV-BD (Stratagene) as a fusion to the yeast GAL4 DNA binding domain under the control of the CMV promoter. The amino acid boundaries of the ligand binding domain were amino acids 187-472 of Database entry NM_005123 (RefSeq). The plasmid pFR-Luc (Stratagene) was used as the reporter plasmid, containing a synthetic promoter with five tandem repeats of the yeast GAL4 binding sites, driving the expression of the Photinus pyralis (American firefly) luciferase gene as the reporter gene. In order to improve experimental accuracy the plasmid pRL-CMV (Promega) was cotransfected. pRL-CMV contains the constitutive CMV promoter, controlling the expression of the Renilla reniformis luciferase. All Gal4 reporter gene assays were done in HEK293 cells (obtained from DSMZ, Braunschweig, Germany) grown in MEM with L-Glutamine and Earle's BSS supplemented with 10% fetal bovine serum, 0.1 mM nonessential amino acids, 1 mM sodium pyruvate, and 100 units Penicillin/[…] per mL at about 37° C. in 5% CO2. Medium and supplements were obtained from Invitrogen. For the assay, 5×10^5 cells were plated per well in 96 well plates in 100 μl per well MEM without Phenol Red and L-Glutamine and with Earle's BSS supplemented with 10% charcoal/dextran treated FBS (HyClone, South Logan, Utah), 0.1 mM nonessential amino acids, 2 mM glutamine, 1 mM sodium pyruvate, and 100 units Penicillin/[…] per mL, incubated at about 37° C. in 5% CO2. The following day the cells were >90% confluence. […] Cells were incubated for additional 16 hours before firefly and renilla luciferase activities were measured sequentially in the same cell extract using a Dual-Light-Luciferase-Assay system (Dyer et al., Anal. Biochem. 2000, 282, 158-161). […]
`O=C(O)c1cnc(N2CC(O)(c3ccc(OCc4c(-c5c(Cl)cc(F)cc5Cl)noc4C4CC4)cc3Cl)C2)c(F)c1` [Comparative Example 1, 6-(3-(2-chloro-4-((5-cyclopropyl-3-(2,6-dichloro-4-fluorophenyl)isoxazol-4-yl)methoxy)phenyl)-3-hydroxyazetidin-1-yl)-5-fluoronicotinic acid] showed an EC50 of 1.2 nM.
For `O=C(O)c1ccc(N2CC(O)(c3ccc(OCc4c(-c5c(Cl)cc(F)cc5Cl)noc4C4CC4)cc3Cl)C2)nc1` [Example 1, 6-(3-(2-chloro-4-((5-cyclopropyl-3-(2,6-dichloro-4-fluorophenyl)isoxazol-4-yl)methoxy)phenyl)-3-hydroxyazetidin-1-yl)nicotinic acid], the EC50 was 5.5 nM.
Molecule `O=C(O)c1ccc(N2CC(O)(c3ccc(OCc4c(-c5c(Cl)cccc5Cl)noc4C4CC4)cc3Cl)C2)nc1` [Comparative Example 2] has an EC50 of 2 nM.
